1 compound from patent publication US11248016B2, “Glycolipids and pharmaceutical compositions thereof for use in therapy” (THE UNIVERSITY OF NOTTINGHAM, priority 2014, dated 2022) can be followed below.

Assay [1] deals with CrPV IRES-dependent translation. Nature of the assay: CrPV assay, IRES-dependent translation (Renilla luciferase). The assay is classed as cell-based. The following applies: 3 hours treatment. An excerpt:
FIG. 12—CrPV assay—Natural molecule targets eIF4A.
By using a well characterised luciferase based reporter assay it was further determined that this class of molecule functions as a protein synthesis inhibitor via targeting the helicase eIF4A.

A further assay has as its system thioredoxin (TXN) 5′UTR. Nature of the assay: 5′UTR firefly luciferase reporter assay, TXN. The assay is classed as cell-based, human. The following applies: Neuroblastoma cells; FIG. 3d. As for the experimental part: The 5′UTRs of genes which negatively associate with the progression of Alzheimer's disease—amyloid precursor protein (APP) and beta secretases (BACE) are all inhibited by treatment with a compound of Formula II, whereas the equivalent reporter levels of housekeeping genes actin and thioredoxin (TXN) are not inhibited. […] Neuroblastoma cells were transfected 24 hours prior to treatment with a compound of Formula II. After treatment, cells were prepared as described in the materials and methods. Each experiment represents between 6 and 8 biological repetitions.
(§1) Experiments conducted using Firefly luciferase reporter plasmids containing the 5′ untranslated regions (UTRs) of the genes amyloid precursor protein (APP), thioredoxin (TXN) were conducted with reagents and materials described by Bottley et al, 2010. Experiments conducted using Firefly luciferase reporter plasmids containing the 5′ UTRs of the genes EGFR, BACE1 and Actin were conducted with reagents and materials described by Webb, 2012 (http://etheses.nottingham.ac.uk/2724/). […]
(§2) Cells were transfected using FuGene 6 (Roche) following the manufacturer's instructions. The activities of firefly and renilla luciferase in lysates prepared from transfected cells were measured using a commercially available Luciferase reporter assay system (Promega) and light emission was measured over a 10 sec interval using a TECAN luminometer. […]
On the technique in general: Reporter assays use an easily measured gene product as a stand-in for the process of interest.

The test system of assay [2] is SH-SY5Y neuroblastoma cancer cells. Nature of the assay: Cell proliferation, SH-SY5Y. The assay is classed as cell-based. The following applies: 96 hours, plus 2.5 μM Cisplatin, higher doses (10 μg) of Formula II.
The test system of another assay is breast cancer cells MCF7. Nature of the assay: Cell proliferation, MCF7. The assay is classed as cell-based. The following applies: 96 hours, Formula II only. As for the experimental part:
Growth of MCF7 cell lines were slowed by the treatment with a compound of Formula II. Experiment represents 6 biological repetitions, Error=S.E.M.
Prior to treatment cells were cultured to an appropriate confluency in 96 well tissue culture plates (Fisher). Cells remained either supplemented with fresh media or treated with fresh media containing active or an equivalent volume of DMSO (vehicle control). Where used, Cisplatin™ was diluted to a stock concentration in Dimethylformamide (DMF), then handled as per the manufacturer's instructions. To determine relative cell viability, reagents WST-1 (Roche) or MTT (Sigma) were used as per the manufacturer's instructions and absorbance at 450 nm measured using a Victor plate reader (Perkin Elmer).

The next assay deals with NLGN2 5′UTR. Nature of the assay: NLGN translation reporter assay, neuroligin 2. The assay is classed as cell-based, human. The following applies: equivalent treatment; FIG. 5 and FIG. 10. As for the experimental part: (§3) The mechanism of action and level of activity of Formula II are consistent with and comparative to a proven translational inhibitor extracted from a rare coral species (Hippuristanol—a proven inhibitor of eIf4A). In this experiment 1 μM of Hippuristanol and 1.3 μM of Formula I was used
(§4) FIG. 10—Compound 46, NLGN Translation reporter assay.
Treatment with the compound of Formula II (and compound 46) (FIG. 5 and FIG. 10) selectively decrease the firefly luciferase signal from a reporter construct containing the NLGN1 5′UTR upstream of a firefly luciferase gene. The translation of luciferase reporters downstream of the NLGN1 5′UTR has been proven to be dependent on the activity of the translation initiation complex eIF4F (Gkogkas et al Nature 2013, 493:371-7)—a complex containing the helicase eIF4A. […]
as §2

The next assay deals with NLGN1 5′UTR. Nature of the assay: NLGN translation reporter assay, neuroligin 1. The class given is cell-based, human. The following applies: FIG. 5: 1 μM Hippuristanol, 1.3 μM compound; FIG. 10: compound 46. As to the method: as §3, §4
Direct evidence is provided that inhibiting eIF4A represents a new route to treating ASD based on the data presented by Gkogkas et al. Nature 2013, 493:371-7.
Treatment with the compound of Formula II (and compound 46) (FIG. 5 and FIG. 10) selectively decrease the firefly luciferase signal from a reporter construct containing the NLGN1 5′UTR upstream of a firefly luciferase gene. The translation of luciferase reporters downstream of the NLGN1 5′UTR has been proven to be dependent on the activity of the translation initiation complex eIF4F (Gkogkas et al Nature 2013, 493:371-7)—a complex containing the helicase eIF4A. Equivalent treatment had little effect on the signal generated from either a co-transfected renilla luciferase reporter control or cells transfected with an equivalent construct containing the NLGN2 5′UTR upstream of a firefly luciferase gene (FIG. 5 and FIG. 10).
as §1, §2

Assay [3] deals with firefly luciferase translation reporter. Nature of the assay: Firefly luciferase translation reporter assay. The assay is classed as cell-based, human. An excerpt: Graphs represent 4 biological repetitions per treatment—2 independent treatments of a compound of Formula II.
Graphs represent 4 biological repetitions per treatment. […] No difference is observed between Hippuristanol and Hippuristanol plus a compound of Formula II.
The degree of translation inhibition is shown to be equivalent to that of a known inhibitor of translation, hippuristanol (FIGS. 3b and 5). Comparative structured 5′UTR firefly luciferase reporter experiments conducted using either hippuristanol or a compound of Formula II show the inhibition of reporter levels is equivalent.
Cells were transfected using FuGene 6 (Roche) following the manufacturer's instructions. The activities of firefly and renilla luciferase in lysates prepared from transfected cells were measured using a commercially available Luciferase reporter assay system (Promega) and light emission was measured over a 10 sec interval using a TECAN luminometer. For each experiment described, data was obtained from a minimum of at least 3 biological repetitions per treatment.

The structures appear in SMILES notation.

As for `CC/C=C\C/C=C\C/C=C\CCCCCCCC(=O)OC[C@H](COC1OC(CO)C(O)C(O)C1O)OC(=O)CCCCCCC/C=C\C/C=C\C/C=C\CC` (stereo partly drawn) [Formula II, 1,2-dioctadecatienyl-3-O-β-D-galactosyl-sn-glycerol], the “CrPV IRES-dependent translation (Renilla luciferase signal)” value in assay [1] was “but not CrPV IRES-dependent translation (Renilla luciferase signal), was inhibited”. In addition, the “firefly luciferase reporter levels, TXN 5′UTR” value with thioredoxin (TXN) 5′UTR is recorded as “not inhibited”. Also, the “kill of SH-SY5Y cells in combination with Cisplatin” value in assay [2] is listed as “complete kill”. For the same compound, the “growth of MCF7 cells” value in the assay with breast cancer cells MCF7 is reported as “slowed”. In the assay on NLGN2 5′UTR, the “signal of NLGN2 5′UTR firefly luciferase reporter” value was “little effect”. For the same compound, the “translation of NLGN1 5′UTR firefly luciferase reporter relative to neuroligin 2” value in the assay on NLGN1 5′UTR was “selectively reduces the translation”. Also, in assay [3] (Hippuristanol 1 μM, 4 hrs, FIG. 3c), the “difference between Hippuristanol and Hippuristanol plus Formula II” value is on record as “No difference”. Also, the “inhibition of translation reporter” value in assay [3] (Hippuristanol (1 μM) plus Formula II, 4 hrs, FIG. 3c) is recorded as “significant inhibition”. Besides, the “inhibition of translation reporter activity” value in assay [3] (neuroblastoma cells, treated 4 hrs, compound alone, FIG. 3b) is on record as “equivalent to treatment with 1 μM Hippuristanol”.
